Series [1] relates to mice homozygous for loss of folate binding protein 1. To be noted: 10.75 to 43.0 micromoles/kg/day; untreated mice died in utero; optimal between days E7-E9; cited from earlier work.
For series [2] the following is noted: cited from earlier work.
How the values of series [3] were obtained:
A study of the rate of increase of serum folate with 5-methyl-6S-tetrahydrofolate (6S-5-MTHF) was performed with women of child bearing age (final range: 20 to 44 years old). Volunteers were screened for fasting serum folate, and the lower quintile enrolled (n=21 participants). On the first day, a baseline fasting blood sample was obtained using a serum separator tube, and then a 7.5 mg (16.3 micromoles) oral dose of 6S-5-MTHF along with 0.5 mg of cyanocobalamin was administered. After 24 hours (day 2) and again after 48 hours (day 3) fasting blood samples were withdrawn, and the same doses of 6S-5-MTHF and vitamin B12 were administered. At 72 hours (day 4) and 96 hours (day 5), further blood samples were withdrawn, but without administration of vitamins for the first 10 Subjects.
These subjects returned on days 12 and 19 to provide serum samples. Compliance was established by counting the excess tablets at the end of the study.
The serum samples were frozen and then initially analyzed for total folate using the Immulite 2000 competitive binding assay, and later by microbiological assay using L. rhamnosus. Serum B12 was determined using the Immulite 2000 assay. This study and the following trials B and C were performed with approval by the Institutional Review Board of the University of South Alabama.

For series [4] the following is noted: Trial B.
Experimental: (§1) The 21 volunteers with a value below 25 nM serum folate at screening ranged between 20 to 44 years old.
For series [5] the following is noted: Trial B; microbiological assay.
Experimental: as §1
Series [6] is classed as in vivo, women.
The test system of series [7] is recurrent NTD. To be noted: 4 mg/day; cited from earlier work.
Series [8] concerns NTD. To be noted: 400 μg/d, cited from earlier work.
For series [9] the following is noted: cited from earlier work. This is another data set of the same source.
Series [10] relates to heart defects. Conditions: periconceptional use; cited from earlier work.
Series [11] has as its system cleft lip/palate. Conditions: periconceptual administration; cited from earlier work.
Series [12] can be described thus: Trial A: serum B12 by Immulite 2000 assay. To be noted: three daily 0.5 mg doses, by 72 hours, subjects (n=6) with screening values below 330 pg/mL. In kind it is in vivo, women. How it is done:
Serum B12 was determined using the Immulite 2000 assay.
The average vitamin B12 levels specifically for those subjects (n=6) with screening values below 330 pg/mL are shown in FIG. 2 (dotted line). By 72 hours after initiation of the three doses, serum B12 increased on average by about 80 pg/mL, and then fell slightly. Levels below 200 pg/mL are considered to be deficient, and those between 200 and 350 pg/mL are generally considered to be low-normal. Data beyond day 5 are not available for this trial, since only one of those with sub-optimal B12 status volunteered to continue.

Series [13] in a line: Trial B: serum B12. In kind it is in vivo, women. The text has this:
It is believed that this may be due to uptake of the plasma B12 into the tissues of the deficient or mildly deficient subjects. None the less, by day 12 nearly half of the subjects were still in the normal range.

The mark [14] stands for this setting: after 4 weeks of 800 μg (Brämswig et al.).

In the case of `Nc1nc2c(c(=O)[nH]1)N(C=O)C(CNc1ccc(C(=O)N[C@@H](CCC(=O)O)C(=O)O)cc1)CN2` (some centres unmarked) [5-formyl-tetrahydrofolate], in series [1], the “survival and malformations of knockout mice” value is reported as “some of these mice survived, but were subject to malformations”.
With `CN1c2c(nc(N)[nH]c2=O)NCC1CNc1ccc(C(=O)N[C@@H](CCC(=O)O)C(=O)O)cc1` (some centres unmarked) [5-methyltetrahydrofolate], the “time to reach plateau in the plasma” value in series [2] (400 μg/d, young women) is listed as 12 weeks. Besides, the “survival and malformations of knockout mice” value in series [1] is listed as “some of these mice survived, but were subject to malformations”.
With `CN1c2c(nc(N)[nH]c2=O)NC[C@@H]1CNc1ccc(C(=O)N[C@@H](CCC(=O)O)C(=O)O)cc1` [6S-5-MTHF, 5-methyl-6S-tetrahydrofolate], in series [3] (Trial A), the “number of subjects not reaching greater than 37 nM serum total folate by the second day” value is “three” and the “percent of subjects not reaching greater than 37 nM serum total folate by the second day” value amounted to 15%. Besides, in series [3] (in vivo), the “total folate of all subjects by the fourth day” value is listed as “above 55 nM” and the “total folate of all subjects by the third day” value is reported as “above 44 nM”. Moreover, the “average serum level maintained over the next two weeks” value in series [4] (0.8 mg/d 6S-5-MTHF starting on day 4) is recorded as “higher than 66 nM”. Further, the “average serum 5-MTHF, day 5” value in series [4] (48 hours after last 7.5 mg dose, 0.8 mg/d maintenance from day 4) stood at 74 nM. The “average serum 5-MTHF, day 4” value in series [4] (five 7.5 mg doses every 12 hours, 24 hours after last 7.5 mg dose) was determined as 98 nM. Further, in [5], the “total folate: women below 50 nM during the study” value is on record as “only a single person was ever below 50 nM”.
Regarding `Nc1nc2ncc(CNc3ccc(C(=O)N[C@@H](CCC(=O)O)C(=O)O)cc3)nc2c(=O)[nH]1` [folic acid], in [6] (Trial C), the “number of subjects below 44 nM total folate by the third day” value was 9, the “number of subjects below 50 nM total folate by the fourth day” value was 10 and the “percent of subjects failing to achieve greater than 37 nM serum total folate by the second day” value turned out to be 40%. Further, the “number of subjects failing to achieve greater than 37 nM serum total folate by the second day” value in series [6] (Trial C, of 20) amounted to 8. In addition, the “highest serum total folate in any measurement, single slow-responding subject” value in [6] (female, human, in vivo) is listed as ≤ 32 nM. Moreover, the “recurrent NTD prevented compared to the control group” value in series [7] was 72%. Besides, in series [8] (10 per 10,000 births before intervention), the “NTD cases after treatment, southern region” value was 6 per 10,000. In series [8] (48 per 10,000 births before intervention), the “NTD cases after treatment, northern region” value is on record as 10 per 10,000. Also, the “average plasma folate level” value in series [2] (setting [14]) was 50 nM. The “average red cell folate level” value in [9] (setting [14]) is 919 nM. Besides, the “time of treatment to elevate red cell concentrations to 906 nM” value in series [9] (daily dose of 800 μg) is 4.2±3.5 weeks. Also, the “decrease in the prevalence of heart defects” value in series [10] is 20%. For the same compound, the “reduction in recurrence of orofacial clefts (meta-analysis)” value in [11] is “two thirds”.
For cyanocobalamin, the “average increase of serum B12” value in [12] is listed as “about 80 pg/mL”. Also, the “rate of increase of serum B12” value in series [13] (Trial B three daily 1.0 mg doses versus Trial A 0.5 mg doses) is given as “considerably greater than observed with the 0.5 mg doses”. For the same compound, the “subjects with serum B12 still in the normal range by day 12” value in series [13] (Trial B, after three daily 1.0 mg doses) is recorded as “nearly half”. For the same compound, the “half life of fall of serum B12 after discontinuation” value in series [13] (Trial B, after three daily 1.0 mg doses, approximate exponential) is “about 2%”. Besides, the “subjects with serum B12 in the normal range by day 4” value in series [13] (Trial B, three daily 1.0 mg doses) is on record as 88%.

(Values after patent US10357496B2, “Methods, formulations, and kits for rapidly repleting folate levels in women” (SOUTH ALABAMA MEDICAL SCIENCE FOUNDATION, priority 2011, dated 2019).)
